# Source: PMC7762591, “AmOctα2R: Functional Characterization of a Honeybee Octopamine Receptor Inhibiting Adenylyl Cyclase Activity” (International Journal of Molecular Sciences, 2020)
# pEC50, pIC50: −log10 of the molar value. Entries after “also recorded” stand apart in the source; their conditions may differ. Read-outs that look alike come from different tables or passages of the source.
# How the values were obtained:
# AmOctα2R-HA [1] = target: T1, AmOctα2R-HA (Apis mellifera, UniProt A0A7M7FZR9); test: Antagonist concentration-response on octopamine-activated AmOctα2R-HA in flpTM cells; format: cell-based; conditions: for IC50: read-out: log IC50 ± SD (converted)
# T1 sequence (A0A7M7FZR9 entry or part of it): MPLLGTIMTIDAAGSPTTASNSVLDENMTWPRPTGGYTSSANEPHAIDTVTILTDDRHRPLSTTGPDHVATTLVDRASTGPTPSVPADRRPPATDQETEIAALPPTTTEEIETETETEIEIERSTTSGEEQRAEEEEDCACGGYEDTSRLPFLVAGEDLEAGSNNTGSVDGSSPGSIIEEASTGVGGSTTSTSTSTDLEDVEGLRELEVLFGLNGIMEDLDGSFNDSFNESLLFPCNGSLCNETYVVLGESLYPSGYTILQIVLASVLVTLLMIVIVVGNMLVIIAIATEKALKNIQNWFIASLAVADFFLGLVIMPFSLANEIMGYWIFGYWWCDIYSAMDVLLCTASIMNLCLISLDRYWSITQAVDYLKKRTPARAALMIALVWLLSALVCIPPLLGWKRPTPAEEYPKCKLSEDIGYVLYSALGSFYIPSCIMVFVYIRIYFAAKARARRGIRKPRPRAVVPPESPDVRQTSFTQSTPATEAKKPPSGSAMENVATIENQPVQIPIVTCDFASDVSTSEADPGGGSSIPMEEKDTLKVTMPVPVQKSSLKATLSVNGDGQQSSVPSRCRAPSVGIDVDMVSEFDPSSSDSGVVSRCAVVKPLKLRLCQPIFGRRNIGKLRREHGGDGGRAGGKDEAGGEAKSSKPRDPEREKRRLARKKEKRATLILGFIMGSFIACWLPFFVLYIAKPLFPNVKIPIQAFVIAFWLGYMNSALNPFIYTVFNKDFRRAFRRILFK
# Procedure: (§1) For AmOctα2R-HA expression and pharmacological analysis, we used a human embryonic kidney (HEK293; flpIn cells; Invitrogen/ThermoFisher Scientific; #750-07)-based cell line that was transfected with a gene encoding a variant of the A2-subunit of the olfactory CNG ion channel (flpTM cells), provided by Sibion biosciences, Jülich, Germany. These flpTM cells were transfected with 3 µg, 8 µg, or 12 µg of the pcAmOctα2R-HA construct by a modified calcium phosphate method following a previously established protocol. Transfected cells were selected in the presence of the antibiotics G418 (1 mg/mL) and hygromycin (100 µg/mL). Expression of AmOctα2R-HA was monitored by Western blotting and immunocytochemistry using anti-HA antibodies (Roche/Sigma-Aldrich/Merck).
# (§2) A stably transfected cell line was used to examine AmOctα2R-HA receptor activity by Ca^2+ imaging. Control measurements were performed in the parental (flpTM) cell line. Changes in [cAMP]i were registered indirectly via co-expressed CNG channels that were opened by cAMP and cause an influx of extracellular Ca^2+ [30, 32, 48]. Changes in [Ca^2+]i were monitored with the Ca^2+-sensitive fluorescent dye Fluo-4. Cells were grown in 96-well dishes to a density of approximately 2 × 10^4 cells per well and were loaded at room temperature with Fluo-4 AM as described previously. After 90 min, the loading solution was substituted with a dye-free extracellular solution (ECS; 120 mM NaCl, 5 mM KCl, 2 mM MgCl2, 2 mM CaCl2, 10 mM HEPES, and 10 mM glucose, pH 7.4 (NaOH)) containing 100 µM IBMX. The plate was transferred into a fluorescence reader (FLUOstar Omega, BMG Labtech, Ortenberg, Germany) to monitor Fluo-4 fluorescence. The excitation wavelength was 485 nm. Fluorescence emission was detected at 520 nm. Concentration series of various biogenic amines and synthetic receptor ligands were added, once Fluo-4 fluorescence intensity reached a stable value in each well. The changes in Fluo-4 fluorescence were recorded automatically. Concentration–response curves were established from at least three independent experiments with quadruplicate measurements.
# Table S3. Mean values for half-maximal inhibition (IC50 [M] and log IC50 ± SD) for substances with antagonistic activity on octopamine-activated AmOctα2R. For each substance at least […] independent experiments with quadruplicate measurements were performed. Values were obtained from non-linear fitting of the data from concentration-response curves (GraphPad Prism 5.04).
# Substance IC50 [M] log IC50 […]
# Biol Direct. 2008, 3, 20. […]
# Int.
# AmOctα2R-HA [2] = target: T1, AmOctα2R-HA; test: Antagonist concentration-response on tyramine-activated AmOctα2R-HA in flpTM cells; format: cell-based
# Procedure: The ability of various potential antagonists for impairing AmOctα2R-HA activity was assessed in a similar way. […] Ligand concentrations that led to the half-maximal inhibition of AmOctα2R-HA (IC50) were determined from the concentration–response curves and are summarized in Table 2.
# as §1, §2
# AmOctα2R-HA [3] = target: T1, AmOctα2R-HA; test: Agonist effects on NKH 477-stimulated cAMP (Fluo-4 Ca2+ fluorescence via co-expressed CNG channel) in AmOctα2R-HA-expressing flpTM cells; format: cell-based; conditions: for effect on NKH 477-stimulated cAMP production (Ca2+-dependent fluorescence signal): biogenic amines 10^−6 M each; for pEC50: octopamine fitted from 10^−9 M to 3 × 10^−6 M, read-out: EC50 (half-maximal reduction of cAMP / activation), typical experiment
# Procedure: as §1, §2
# [4] = tested on: nontransfected flpTM cells; test: Control measurements of Fluo-4 fluorescence in nontransfected (parental) flpTM cells; format: cell-based, human
# Procedure: as §1
# A stably transfected cell line was used to examine AmOctα2R-HA receptor activity by Ca^2+ imaging. […] Changes in [Ca^2+]i were monitored with the Ca^2+-sensitive fluorescent dye Fluo-4. […] The plate was transferred into a fluorescence reader (FLUOstar Omega, BMG Labtech, Ortenberg, Germany) to monitor Fluo-4 fluorescence. […] Fluorescence emission was detected at 520 nm. Concentration series of various biogenic amines and synthetic receptor ligands were added, once Fluo-4 fluorescence intensity reached a stable value in each well. The changes in Fluo-4 fluorescence were recorded automatically. […]
# DmOctα2R = tested on: DmOctα2R; set-up: method as in PMID 28942992; conditions: dose-dependent activation of DmOctα2R; cited from earlier work
# [5] = block of the action of octopamine, second value of the pair, read-out: IC50
# [6] = log of IC50 in M, octopamine-activated (3 × 10^−7 M octopamine)
# [7] = tyramine-activated (10 µM tyramine)
# [8] = tyramine-activated (10 µM tyramine), 10 µM NKH 477, 100 µM IBMX, read-out: IC50 [M], mean value for half-maximal inhibition
# [9] = log IC50 ± SD, log of IC50 in M, octopamine-activated (3 × 10^−7 M octopamine)
# [10] = log of IC50 in M, tyramine-activated (10 µM tyramine), read-out: logIC50 ± SD (converted)
# [11] = log of EC50 in M, mean of all experiments, octopamine n = 7, tyramine n = 11, read-out: logEC50 ± SD, mean value (converted)
# [12] = log of EC50 in M, single concentration-response curve (Figures 4 and 6), read-out: logEC50 ± SD, typical experiment (converted)
# [13] = mean of all experiments, octopamine n = 7, tyramine n = 11, 10 µM NKH 477, 100 µM IBMX, read-out: EC50 [M], mean value for half-maximal stimulation
# [14] = single concentration-response curve (Figures 4 and 6)
smiles,measurement,setting,value
"NCCc1c[nH]c2ccc(C(N)=O)cc12 [5-CT, 5-carboxamidotryptamine]",pIC50,AmOctα2R-HA [1]; [5],9.57
same,log IC50 ± SD,AmOctα2R-HA [1]; [6],-9.57 ± 0.21
same,logIC50 ± SD,"AmOctα2R-HA [2]; log of IC50 in M, tyramine-activated (10 µM tyramine)",−8.48 ± 0.20
same,Maximal Inhibition [%],AmOctα2R-HA [2]; [7],10.8%
same,IC50,AmOctα2R-HA [2]; [8],4.16e-09 M
"COc1ccc2[nH]cc(CCN)c2c1 [5-MT, 5-methoxytryptamine]",pIC50,"AmOctα2R-HA [1]; IC50, block of the action of octopamine, second value of the pair",6.08
same,pIC50,AmOctα2R-HA [1]; [9],6.08
same,pIC50,"AmOctα2R-HA [2]; IC50, block of the action of tyramine, first value of the printed pair",7.69
same,pIC50,"AmOctα2R-HA [2]; logIC50 ± SD, log of IC50 in M, tyramine-activated (10 µM tyramine)",7.72
same,Maximal Inhibition [%],AmOctα2R-HA [2]; [7],20.3%
"CCCN(CCC)C1CCc2cccc(O)c2C1 (stereo not drawn) [8-OH-DPAT, 8-Hydroxy-2-(dipropylamino)tetralin]",pIC50,AmOctα2R-HA [1]; [9],6.78
same,pIC50,AmOctα2R-HA [2],6.15
same,Maximal Inhibition [%],AmOctα2R-HA [2]; [7],7.21%
Cc1nn(C)c(C)c1-c1cccc2c1CC[C@H](N(C)C)C2 [AS-19],"IC50 [M], mean value for half-maximal inhibition","AmOctα2R-HA [2]; tyramine-activated (10 µM tyramine), 10 µM NKH 477, 100 µM IBMX",did not show any effect; also recorded: no effect
NCCc1ccc(O)c(O)c1 [dopamine],effect on NKH 477-stimulated cAMP production (Ca2+-dependent fluorescence signal),AmOctα2R-HA [3],no effect
NC1=NCC2c3ccccc3Cc3ccccc3N12 (stereo not drawn) [epinastine],IC50,AmOctα2R-HA [1]; [6],16.2 nM
same,IC50,AmOctα2R-HA [2]; [10],1.78e-08 M
same,Maximal Inhibition [%],AmOctα2R-HA [2]; [7],17.31%
O=C(c1ccc(F)cc1)C1CCN(CCn2c(=O)[nH]c3ccccc3c2=O)CC1 [ketanserin],IC50,AmOctα2R-HA [1]; [6],324 nM
same,IC50,AmOctα2R-HA [2]; [10],5.13e-07 M
same,Maximal Inhibition [%],AmOctα2R-HA [2]; [7],17.11%
NCC(O)c1ccc(O)cc1 (stereo not drawn) [octopamine],octopamine concentration leading to an increase in Fluo-4 fluorescence,[4]; in the presence of NKH 477,≥ 300 nM
same,octopamine concentration at which an increase in the fluorescence signal was observed,"AmOctα2R-HA [3]; AmOctα2R-HA-expressing flpTM cells, U-shaped curve, 10 µM NKH 477, 100 µM IBMX",≥ 3 µM
same,Emax at 1 µM,"AmOctα2R-HA [3]; at 10^−6 M octopamine, relative to 10 µM NKH 477 (=100%), read-out: maximal reduction of cAMP synthesis",~25%
same,effect on NKH 477-stimulated cAMP production (Ca2+-dependent fluorescence signal),AmOctα2R-HA [3],decrease in the Ca^2+-dependent fluorescence signal
same,EC50,AmOctα2R-HA [3]; [11],3.72e-08 M
same,EC50,AmOctα2R-HA [3]; [12],1.17e-07 M
same,EC50,AmOctα2R-HA [3]; [13],5.87e-08 M
same,specificity for octopamine over tyramine (difference in EC50),AmOctα2R-HA [3]; ratio of EC50 values,~ 30 fold
same,pEC50,AmOctα2R-HA [3]; [14],6.93
Cc1ccc(N(CC2=NCCN2)c2cccc(O)c2)cc1 [phentolamine],pIC50,AmOctα2R-HA [1]; [5],8.09
same,IC50,AmOctα2R-HA [1]; [6],8.13 nM
same,IC50,AmOctα2R-HA [2]; [10],5.01e-09 M
same,Maximal Inhibition [%],AmOctα2R-HA [2]; [7],16.1%
same,IC50,AmOctα2R-HA [2]; [8],5.6e-09 M
"NCCc1c[nH]c2ccc(O)cc12 [serotonin, 5-hydroxytryptamine]",activation of AmOctα2R,AmOctα2R-HA [3],failed to activate
same,effect on NKH 477-stimulated cAMP production (Ca2+-dependent fluorescence signal),AmOctα2R-HA [3],no effect
same,pEC50,DmOctα2R,5.98
NCCc1ccc(O)cc1 [tyramine],change in the fluorescence signal upon application,[4],no change in the fluorescence signal
same,effect on NKH 477-stimulated cAMP production (Ca2+-dependent fluorescence signal),AmOctα2R-HA [3],decrease in the Ca^2+-dependent fluorescence signal
same,EC50,AmOctα2R-HA [3]; [11],1.66e-06 M
same,EC50,AmOctα2R-HA [3]; [12],1.63e-06 M
same,EC50,AmOctα2R-HA [3]; [13],1.85e-06 M
same,Emax,"AmOctα2R-HA [3]; saturated at tyramine concentration of ≥3 × 10^−5 M, relative to 10 µM NKH 477 (=100%), read-out: reduction of cAMP signal at saturation",~17%
same,pEC50,AmOctα2R-HA [3]; [14],5.79
COC(=O)[C@@H]1[C@H]2C[C@H]3c4[nH]c5ccccc5c4CCN3C[C@@H]2CC[C@@H]1O [yohimbine],pIC50,AmOctα2R-HA [1]; [9],6.44
same,pIC50,AmOctα2R-HA [2],7.12
same,Maximal Inhibition [%],AmOctα2R-HA [2]; [7],14.3%
